Entries after “also recorded” stand apart in the source; their conditions may differ.
Columns and labels:
system xc− = target: T1, system xc− (Homo sapiens, UniProt Q9UPY5); experiment: Glutamate release assay (system xc− activity); details: read-out: IC50 glutamate release; CCF-STTG1 human astrocytoma cells, 2 hour incubation
T1 sequence (Q9UPY5 1-501): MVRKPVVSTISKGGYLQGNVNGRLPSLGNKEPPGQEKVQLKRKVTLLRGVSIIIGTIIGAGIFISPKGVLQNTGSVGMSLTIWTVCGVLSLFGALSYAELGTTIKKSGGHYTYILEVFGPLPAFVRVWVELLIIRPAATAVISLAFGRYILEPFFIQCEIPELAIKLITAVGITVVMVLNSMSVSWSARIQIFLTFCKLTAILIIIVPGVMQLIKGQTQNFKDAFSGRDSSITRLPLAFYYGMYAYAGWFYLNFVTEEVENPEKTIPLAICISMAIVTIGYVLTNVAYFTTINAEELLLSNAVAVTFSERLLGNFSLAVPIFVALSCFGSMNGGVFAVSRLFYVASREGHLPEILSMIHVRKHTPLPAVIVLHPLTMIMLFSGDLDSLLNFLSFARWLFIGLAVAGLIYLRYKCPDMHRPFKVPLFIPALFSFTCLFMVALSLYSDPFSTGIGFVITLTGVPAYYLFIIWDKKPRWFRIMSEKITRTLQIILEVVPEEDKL
T1 sequence (P08195 1-529 partner): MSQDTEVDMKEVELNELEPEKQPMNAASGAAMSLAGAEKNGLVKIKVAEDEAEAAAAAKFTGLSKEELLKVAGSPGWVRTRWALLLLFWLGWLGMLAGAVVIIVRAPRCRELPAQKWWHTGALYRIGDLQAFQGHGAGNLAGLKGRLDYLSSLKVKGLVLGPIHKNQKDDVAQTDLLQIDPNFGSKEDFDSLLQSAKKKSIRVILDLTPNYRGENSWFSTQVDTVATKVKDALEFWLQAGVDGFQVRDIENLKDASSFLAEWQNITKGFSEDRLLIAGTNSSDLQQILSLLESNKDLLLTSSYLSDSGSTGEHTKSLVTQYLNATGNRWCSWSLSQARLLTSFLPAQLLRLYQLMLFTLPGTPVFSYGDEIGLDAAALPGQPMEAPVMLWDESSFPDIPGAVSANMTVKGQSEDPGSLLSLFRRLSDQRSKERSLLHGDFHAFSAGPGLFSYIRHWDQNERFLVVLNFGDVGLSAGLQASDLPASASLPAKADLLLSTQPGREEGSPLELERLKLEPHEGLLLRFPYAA

[1] = Compound half-life in liver microsomes; details: for half-life at 0.5 μM: mouse, liver microsomes, pH 7.4; for metabolic stability (in words): mouse liver microsomes
BJeLR = experiment: Concentration-dependent growth inhibition (alamar blue), isogenic BJ cell lines; assay type: cell-based, human; details: for IC50: Homo sapiens, BJeLR, 48 h, 2 days, alamar blue
HT1080 = experiment: Concentration-dependent growth inhibition (alamar blue), HT1080; assay type: cell-based, human; details: Homo sapiens, HT-1080, 48 h, 2 days
Method: Assay plates were prepared by seeding either BJ-derived cell lines or HT-1080 cells at 1,500 cells per well concentration in 36 μL growth medium. Cells in the assay plates were treated with compounds by transferring 4 μL volume from the compound plate. The final concentration of compound was typically 30 μM to 0.9 nM in this 16-point, 2-fold dilution series. Assay plates were returned to the culture incubator and maintained for 2 days before adding alamar blue. […] Plates were incubated further for 16 hours to allow reduction of alamar blue, which results in the generation of red fluorescence. The fluorescence intensity was determined using a Victor 3 plate reader (Perkin Elmer) with a 535 nm excitation filter and a 590 nm emission filter.
Percent growth inhibition (% GI) was calculated from the following formula using the alamar blue fluorescence intensity values. % GI=100*(1−(X−N)/(P−N)) X, cells treated with lethal compound; N, no cells—growth media only; P, no lethal compound—cells only.
The concentration-dependent curves were generated using Prism software. Percent growth inhibition, measured using alamar blue is shown. Error bars indicate one standard deviation of triplicate data.
The results are shown in FIG. 17 and in Table 7 below.

[2] = system: BJeH, BJeHLT, BJeLR, and DRD; experiment: RSL testing in 4 BJ-derived cell lines; assay type: cell-based, human
[3] = system: siGPX4-induced cell death; experiment: Suppression of siGPX4-induced cell death by ferroptosis inhibitors; assay type: cell-based; details: 10 μM U0126, 100 μM Vit. E, 100 μM DFOM, 50 μM ZIL
[4] = system: HT-1080 cells, U-2 OS cells; experiment: Cell viability (alamar blue, 24 hours) with modulators of erastin lethality; assay type: cell-based, human; details: HT-1080 or U-2 OS cells
[5] = Pharmacokinetic profile in mice; design: species or system mice (C57BL/6); details: in vivo
[6] = system: xenograft tumors generated from BJeLR cells; assay type: in vivo; details: for overt toxicity (body weight): mouse, in vivo
From the text: . To test our hypothesis that IKE represented a candidate of choice for in vivo studies, we treated xenograft tumors generated from BJeLR cells in nude mice and with IKE compared to vehicle or doxorubicin treatments (as a positive growth suppression control). […] To confirm that growth suppression caused by IKE was due to ferroptotic cell death, we looked at levels of expression of PTGS2, a gene expression marker of ferroptosis. […]

HT-1080 cells = experiment: Cell death rescue by ALOX inhibitors and COX inhibitor; assay type: cell-based, human; details: inhibitor concentrations of Table 2
cellular GSH = experiment: GSH depletion assay; assay type: cell-based; details: BJeLR cells, lethal RSL3 dose
GFP-ALOX5 = GFP-ALOX5 translocation assay; assay type: cell-based, human
lipid peroxides = experiment: Lipid peroxide detection using BODIPY-C11; assay type: cell-based; details: BJeLR and other BJ-derived cells

CC(C)Oc1ccc(C=O)cc1-n1c(CN2CCN(C(=O)COc3ccc(Cl)cc3)CC2)nc2ccccc2c1=O [AE, aldehyde erastin]
IC50 (system xc−): 0.06 µM
half-life at 0.5 μM [1]: < 5 min
IC50 (BJeLR): 0.008 µM
IC50 (HT1080): 0.039 µM

C=CCN1CCN(CC(=O)c2ccc(OC(C)C)c(-n3c(CN4CCN(C(=O)COc5ccc(Cl)cc5)CC4)nc4ccccc4c3=O)c2)CC1 [APKE]
IC50 (system xc−): 0.01 µM
metabolic stability (in words) [1]: medium to poor metabolic stability
half-life at 0.5 μM [1]: 4.2 min
Selectivity (IC50BJeH/IC50BJeLR) (BJeLR): 1.5
IC50 (BJeLR): 0.195 µM

CCCCS(=N)(=O)CCC(N)C(=O)O (stereo not shown) [BSO, Buthioninesulfoximine]
RSL phenotype (selective lethality in oncogenic-RAS cells) [2]: RSL phenotype was observed; also recorded: consistently showed an RSL phenotype

N#CC(=C(/N)Sc1ccccc1N)/C(C#N)=C(\N)Sc1ccccc1N [Compound U0126, U0126]
rescue of siGPX4-induced cell death [3]: rescued

CC(C)Oc1ccc(C(=O)CF)cc1-n1c(CN2CCN(C(=O)COc3ccc(Cl)cc3)CC2)nc2ccccc2c1=O [FKE]
IC50 (system xc−): 0.04 µM
metabolic stability (in words) [1]: medium to poor metabolic stability
half-life at 0.5 μM [1]: 4.7 min
IC50 (HT1080): 0.061 µM

N[C@@H](CCC(=O)N[C@@H](CS)C(=O)NCC(=O)O)C(=O)O [GSH, reduced glutathione]
effect on erastin-induced cell death [4]: rescued cells from erastin lethality

CC(C)Oc1ccc(C(=O)Cn2ccnc2)cc1-n1c(CN2CCN(C(=O)COc3ccc(Cl)cc3)CC2)nc2ccccc2c1=O [IKE, imidazole ketone erastin]
IC50 (system xc−): 0.03 µM
bioavailability ([5]; mouse, 5 mg/kg IKE, single IV bolus or single oral gavage, C57BL/6 mice): 2.49%
metabolic stability (in words) [1]: exceptionally high metabolic stability
tumor growth, IKE compared to doxorubicin treatment ([6]; 8 day study): no significant difference
overt toxicity (body weight) [6]: No overt toxicity was observed
expression of PTGS2 relative to doxorubicin or vehicle-treated mice ([6]; qPCR, xenograft): three-fold average increase
tumor size compared to vehicle-treated ([6]; seven once-daily doses of IKE 50 mg/kg I.P., 8 day study): about one third of the size of vehicle-treated tumors
Selectivity (IC50BJeH/IC50BJeLR) (BJeLR): 42
IC50 (BJeLR): 0.003 µM
IC50 (HT1080): 0.314 µM

COc1ccc2c(c1)c(CC(=O)O)c(C)n2C(=O)c1ccc(Cl)cc1 [Indomethacin]
suppression of erastin-induced cell death (HT-1080 cells): only minimally effective in suppressing erastin lethality

CC(=O)c1ccc(OC(C)C)c(-n2c(CN3CCN(C(=O)COc4ccc(Cl)cc4)CC3)nc3ccccc3c2=O)c1 [KE]
IC50 (system xc−): 0.03 µM
half-life at 0.5 μM [1]: 3.8 min
IC50 (HT1080): 0.059 µM

CC(C)Oc1ccc(C(=O)CN2CCOCC2)cc1-n1c(CN2CCN(C(=O)COc3ccc(Cl)cc3)CC2)nc2ccccc2c1=O [MKE]
IC50 (system xc−): 0.01 µM
metabolic stability (in words) [1]: medium to poor metabolic stability
half-life at 0.5 μM [1]: 23.4 min
Selectivity (IC50BJeH/IC50BJeLR) (BJeLR): 5
IC50 (BJeLR): 0.427 µM

CC(C)Oc1ccc(C(=O)CN2CCN(C)CC2)cc1-n1c(CN2CCN(C(=O)COc3ccc(Cl)cc3)CC2)nc2ccccc2c1=O [MPKE]
IC50 (system xc−): 0.3 µM
Selectivity (IC50BJeH/IC50BJeLR) (BJeLR): 1.9
IC50 (BJeLR): 0.474 µM

CC(=O)N[C@@H](CS)C(=O)O [N-acetyl-cysteine]
effect on erastin-induced cell death [4]: rescued cells from erastin lethality

CC(C)Oc1ccc(C(=O)CN2CCNCC2)cc1-n1c(CN2CCN(C(=O)COc3ccc(Cl)cc3)CC2)nc2ccccc2c1=O [PKE, piperazine ketone erastin]
IC50 (system xc−): 0.1 µM
bioavailability ([5]; C57BL/6, mouse, oral, 20 mg/kg): 0.75%
metabolic stability (in words) [1]: exceptionally high metabolic stability
half-life at 0.5 μM [1]: > 90 min
IC50 (HT1080): 0.55 µM

COc1ccc(CN2CCN(CC(=O)c3ccc(OC(C)C)c(-n4c(CN5CCN(C(=O)COc6ccc(Cl)cc6)CC5)nc5ccccc5c4=O)c3)CC2)cc1 [PMB-PKE]
IC50 (system xc−): 0.004 µM
metabolic stability (in words) [1]: medium to poor metabolic stability
half-life at 0.5 μM [1]: 3.4 min
Selectivity (IC50BJeH/IC50BJeLR) (BJeLR): 13
IC50 (BJeLR): 0.013 µM

COC(=O)c1ccc([C@@H]2c3[nH]c4ccccc4c3C[C@@H](C(=O)OC)N2C(=O)CCl)cc1 [RSL3]
RSL phenotype (selective lethality in oncogenic-RAS cells) [2]: exhibited selective lethality in BJeLR cells
cellular GSH level (cellular GSH): remained unaffected
translocation of GFP-ALOX5 to the nuclear membrane (GFP-ALOX5): caused GFP-ALOX5 translocation to the nuclear membrane in BJeLR cells
generation of lipid peroxides (BODIPY-C11) (lipid peroxides): generation of lipid peroxides

CC(C)Oc1ccc(C(=O)C(F)(F)F)cc1-n1c(CN2CCN(C(=O)COc3ccc(Cl)cc3)CC2)nc2ccccc2c1=O [TFKE]
IC50 (system xc−): 0.02 µM
IC50 (HT1080): 0.178 µM

CC(c1cc2ccccc2s1)N(O)C(N)=O (stereo not shown) [ZIL, Zileuton]
rescue of siGPX4-induced cell death [3]: rescued

C[C@H]1O[C@@H](O[C@H]2[C@@H](O)C[C@H](O[C@H]3[C@@H](O)C[C@H](O[C@H]4CC[C@@]5(C)[C@H](CC[C@@H]6[C@@H]5C[C@@H](O)[C@]5(C)[C@@H](C7=CC(=O)OC7)CC[C@]65O)C4)O[C@@H]3C)O[C@@H]2C)C[C@H](O)[C@@H]1O [digoxin, Digoxin]
translocation of GFP-ALOX5 to the nuclear membrane (GFP-ALOX5): induced GFP-ALOX5 translocation

COc1cccc2c1C(=O)c1c(O)c3c(c(O)c1C2=O)C[C@@](O)(C(=O)CO)C[C@@H]3O[C@H]1C[C@H](N)[C@H](O)[C@H](C)O1 [doxorubicin, reference compound]
overt toxicity (body weight) [6]: No overt toxicity was observed
increase in expression of CDKN1A relative to IKE-treated or vehicle-treated mice ([6]; qPCR, xenograft): 5 fold

C[C@H](CCC(=O)O)C[C@H](C)C[C@H](C)C(=O)/C=C(\O)[C@H](C)C[C@H](C)C/C=C/[C@@H](C)[C@@H](O)[C@@H](C)[C@@H](O)C[C@@H]1CC[C@@](C)([C@H]2CC[C@@](C)([C@@H](C)O)O2)O1 [ionomycin]
translocation of GFP-ALOX5 to the nuclear membrane (GFP-ALOX5): induced localization of GFP-ALOX5 to the nuclear membrane in all BJ-derived cell lines

CN[C@@H]1C[C@H]2O[C@@](C)([C@@H]1OC)n1c3ccccc3c3c4c(c5c6ccccc6n2c5c31)C(=O)NC4 [staurosporine, Staurosporine]
translocation of GFP-ALOX5 to the nuclear membrane (GFP-ALOX5): did not

Vitamin E [Vit. E]
rescue of siGPX4-induced cell death [3]: rescued

lysophosphatidyl choline [lyso-PC]
RSL phenotype (selective lethality in oncogenic-RAS cells) [2]: did not show differential cytotoxicity
effect on erastin-induced cell death [4]: modestly sensitized cells to erastin-induced cell death

— patent US9938245B2 (THE TRUSTEES OF COLUMBIA UNIVERSITY IN THE CITY OF NEW YORK, priority 2014, dated 2018)
